Laboratory results: patent US10851071B2, “M-dihydroxybenzene derivative crystal and salt, and manufacturing method thereof” (Chia Tai Tianqing Pharmaceutical Group Co., Ltd., priority 2016, dated 2020)

Columns and labels:
[1] = Crystal stability under humidity, heat and grinding; assay type: physicochemical; settings: RT/92.5% RH 5 and 10 days; 60° C. 5 and 10 days; grinded 10/20/30 min
[2] = Rough solubility test of A-type crystal and salts of the compound of formula (I); settings: for solubility: thermodynamic from solid; for Approximate solubility: room temperature
Experimental: Hydrochloric acid, acetic acid, sodium acetate, sodium chloride, 5% glucose solution, water (buffer is a buffer solution of acetic acid/sodium acetate).
2 mg of a sample was weighed, and dissolved by adding a solvent (10 μL) thereto at room temperature. […] The total amount of the added solvents was up to 2 mL.

[3] = Dynamic vapour sorption (DVS), wet weight gain; assay type: physicochemical; settings: 25±1° C. and 80±2% RH
BT-474 tumor cells = experiment: In vivo pharmacodynamic evaluation in BT-474 breast cancer transplanted tumors in nude mice
Experimental: BT-474 tumor cells were subcutaneously inoculated into the right axillary fossa of nude mice at 5×10^6/mouse to form transplanted tumors. When the volume thereof reached 100-200 mm^3, the animals were randomly grouped based on tumor volumes: 6 mice in negative control group; 6 mice in positive control group; and 6 mice in each test group. The mice in the treatment groups were intravenously injected with different concentrations of positive drug Ganetespib (20 mg/kg) and the compound of formula (I) (10 mg/kg and 20 mg/kg) three times a week, and the mice in the negative control group were administrated with equal amount of vehicles at the same time. The length (A) and width (B) of the tumor were measured twice a week by using a vernier caliper, and the tumor volume V=A×B^2/2 was thereby calculated. The calculation of relative tumor volume (RTV) follows: RTV=Vt/V0, wherein Vt was the tumor volume at the end of administration, and V0 was the tumor volume measured before administration to each cage. The pharmacodynamic evaluation index of antitumor activity was the relative tumor proliferation rate T/C (%), and the calculation formula was: TIC (%)=TRTV/CRTV×100%, wherein TRTV: RTV of the treatment group; CRTV: RTV of the negative control group. Therapeutic efficacy evaluation criteria: T/C %>60% was ineffective; T/C %≤60% with P<0.05 after being statistically processed was effective. […]

[4] = Tissue distribution in SD rats after tail vein injection (LC/MS/MS); assay type: in vivo
Experimental: SD rats were used as test animals, and the drug concentrations in plasma, lung and breast tissues of rats at different times after administrating the compound of formula (I) via the injection in tail vein were measured by using LC/MS/MS method. The tissue distribution of the compound of the present invention in rats was investigated, and pharmacokinetic characteristics thereof were evaluated.
Appropriate amounts of samples were weighed, and Luminespib, Ganetespib and the compound of formula (I) of the present invention were respectively formulated into a clear solution with a concentration of 2.5 mg/mL for intravenous injection, wherein the solvent was consisted of 10% (v/v) of DMSO, 14% (v/v) of polyoxyethylene hydrogenated castor oil 40, and 76% (v/v) of 5% aqueous glucose solution.
9 SD male rats were divided into three groups, three rats per group. The rats were administered intravenously through tail vein at a dose of 1 mg/kg after being normally fed.
Samples of blood, lung and breast tissues were collected from the rats in three groups at 0.5, 6, and 24 hours after administration, respectively. The blood sample was separated by centrifugation at 4° C., 3000 rpm/min for 15 min within half an hour after collection, so as to obtain plasma sample. The resulting plasma sample was deposited in polypropylene tubes and stored at −80° C. for LC/MS/MS analysis. After blood sample was collected, the animals were sacrificed with CO2, and the tissue samples were collected. Each tissue sample was washed twice with cold deionized water and adhered onto filter paper. Each tissue sample was then homogenized several times in MeOH/15 mM PBS (1:2) (5 mL MeOH/15 mM PBS (1:2) per gram of tissue, with dilution coefficient of 6), to ensure the formation of homogeneous phase. The whole process was carried out at a freezing point temperature. The homogenized samples were quickly frozen by using dry ice and stored at −80° C. for bioassay.
The contents of the test compounds in the plasma, lung and breast tissues of the rats after the administration by injection were measured with LC/MS/MS method.

[5] = 0.9% NaCl solution, saline or isotonic
[6] = 5% glucose solution, saline or isotonic
[7] = acetic acid/sodium acetate buffer pH 3.5, pH 3.5, aqueous buffer
[8] = acetic acid/sodium acetate buffer pH 4.5, pH 4.5, aqueous buffer
[9] = acetic acid/sodium acetate buffer pH 5.5, pH 5.5, aqueous buffer
[10] = acetic acid/sodium acetate buffer pH 6.8, pH 6.8, aqueous buffer
[11] = acetic acid/sodium acetate buffer pH 7.5, pH 7.5, aqueous buffer
[12] = rats, injection dose of 1 mg/kg, same dose

Compound | solubility [2, 5] [µg/mL] | solubility [2, 6] [µg/mL] | solubility [2, 7] [µg/mL] | solubility [2, 8] [µg/mL] | solubility [2, 9] [µg/mL] | solubility [2, 10] [µg/mL] | solubility [2, 11] [µg/mL] | solubility ([2]; water) [µg/mL] | wet weight gain ΔW % [3] | Lung exposure ([4]; SD rats, 1 mg/kg iv) [µM·h] | other results
CCNC(=O)c1onc(-c2cc(C(C)C)c(O)cc2O)c1-c1ccc2c(c1)CCNC2 [A-type crystal] | < 1000 | < 1000 | 80000 to 100000 | 30000 to 50000 | < 1000 | < 1000 | < 1000 | < 1000 | about 0.45% |  | crystal transformation [1]: no crystal transformation; solubility ([2]; 0.01N HCl, simulated gastric fluid): 800 to 1000 µg/mL; solubility ([2]; 0.1N HCl, simulated gastric fluid): < 1000 µg/mL; solubility ([2]; acetic acid/sodium acetate buffer pH 6.5, pH 6.5, aqueous buffer): < 1000 µg/mL
CCNC(=O)c1onc(-c2cc(C(C)C)c(O)cc2O)c1-c1ccc2c(c1)CCNC2 [Compound of formula (I), 3(2,4dihydroxy-5-isopropylphenyl)-N-ethyl-4(1,2,3,4-tetrahydroisoquinolin-6-yl)isoxazole-5-carboxamide] |  |  |  |  |  |  |  |  |  | 30.933 | TGI (%) (BT-474 tumor cells; 10 mpk iv three times a week, day 35 (administration stopped day 18)): 120%; antitumor effect compared with Ganetespib (in words) (BT-474 tumor cells; 10 mpk versus 20 mpk of Ganetespib, BT-474 transplanted mouse model): significantly superior antitumor effect; Breast tissue exposure ([4]; SD rats, 1 mg/kg iv): 7.226 µM·h; Plasma exposure ([4]; SD rats, 1 mg/kg iv): 0.415 µM·h; concentrations in lung and breast tissues compared with Luminespib and Ganetespib (in words) [4, 12]: significantly higher; tissue exposures compared with Luminespib and Ganetespib (in words) [4, 12]: significantly greater; solubility depending on buffer pH (in words) ([2]; conclusion from Table 5): higher solubility in the buffer of pH 3.5-4.5
maleate |  |  |  |  |  |  |  |  | about 0.379% |  | Approximate solubility ([2]; 0.9% NaCl solution): <2000 µg/mL; Approximate solubility ([2]; 5% glucose solution): 2100 to 2300 µg/mL; Approximate solubility ([2]; pH 3.5 buffer (acetic acid/sodium acetate)): 6500 to 7500 µg/mL; Approximate solubility ([2]; pH 4.5 buffer): 3400 to 3900 µg/mL; Approximate solubility ([2]; pH 5.5 buffer): <2000 µg/mL; Approximate solubility ([2]; pH 6.8 buffer): <2000 µg/mL; Approximate solubility ([2]; pH 7.5 buffer): <2000 µg/mL; Approximate solubility ([2]; water): 2200 to 2600 µg/mL

Second part, led by results:

solubility [2, 5] [µg/mL] | solubility [2, 6] [µg/mL] | solubility [2, 7] [µg/mL] | solubility [2, 8] [µg/mL] | solubility [2, 9] [µg/mL] | solubility [2, 10] [µg/mL] | solubility [2, 11] [µg/mL] | solubility ([2]; water) [µg/mL] | wet weight gain ΔW % [3] | Lung exposure ([4]; SD rats, 1 mg/kg iv) [µM·h] | Compound | other results
 |  |  |  |  |  |  |  |  | 5.284 | CCNC(=O)c1noc(-c2cc(C(C)C)c(O)cc2O)c1-c1ccc(CN2CCOCC2)cc1 [Luminespib, 5[2,4dihydroxy-5-isopropylphenyl]-N-ethyl-4[4-(4-morpholinylmethyl)phenyl]-3-isoxazolecarboxamide, reference compound] | 
< 2000 | 4600 to 5500 | 9500 to 14200 | 5800 to 7300 | < 2000 | < 2000 | < 2000 | 5300 to 6300 |  |  | CCNC(=O)c1onc(-c2cc(C(C)C)c(O)cc2O)c1-c1ccc2c(c1)CCNC2.Cl [hydrochloride, 3-(2,4-dihydroxy-5-isopropylphenyl)-N-ethyl-4-(1,2,3,4tetrahydroisoquinolin-6-yl)isoxazole-5-carboxamide hydrochloride] | solubility compared with A-type crystal (in words) ([2]; conclusion from Table 5): significantly higher solubilities than that of the A-type crystal
 |  |  |  |  |  |  |  | about 0.081% |  | O=S(=O)(O)O [sulfate] | 
